According to PubChem BioAssay AID1918940 (Molecular Pharmacology Branch, DTP, NCI, 2023):
Where “and” joins values, the source holds several entries; their conditions need not be identical. Equal values may be shown once.

System: NCI-H211 complex spheroid viability
Experiment: Anticancer human tumor NCI-H211 cell line growth inhibition [LSD1];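 further: luminescent viability read after seven days of drug exposure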;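 on viability, T/C: 100% = DMSO vehicle control viability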
Conditions: for viability, T/C: stronger effect = lower value
Method in brief: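 Drug combinations with the LSD1 inhibitor iadademstat tested on tumor cells co-cultured as spheroids with endothelial cells and mesenchymal stem cells. Concentrations descended in half-log increments from clinical Cmax or 10 microM.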

[1] = curve of first compound, second compound 0.1 µM
[2] = curve of first compound, second compound 0.316 µM
[3] = curve of first compound, second compound 1 µM
[4] = curve of first compound, second compound 3.16 µM
[5] = curve of first compound, second compound 10 µM
[6] = second compound 0.1 µM, first compound 0.000949 µM
[7] = second compound 0.1 µM, first compound 0.003 µM
[8] = second compound 0.1 µM, first compound 0.00949 µM
[9] = second compound 0.1 µM, first compound 0.03 µM
[10] = second compound 0.1 µM, first compound 0.0949 µM
[11] = second compound 0.1 µM, first compound 0.3 µM
[12] = second compound 0.316 µM, first compound 0.000949 µM
[13] = second compound 0.316 µM, first compound 0.003 µM
[14] = second compound 0.316 µM, first compound 0.00949 µM
[15] = second compound 0.316 µM, first compound 0.03 µM
[16] = second compound 0.316 µM, first compound 0.0949 µM
[17] = second compound 0.316 µM, first compound 0.3 µM
[18] = second compound 1 µM, first compound 0.000949 µM
[19] = second compound 1 µM, first compound 0.003 µM
[20] = second compound 1 µM, first compound 0.00949 µM
[21] = second compound 1 µM, first compound 0.03 µM
[22] = second compound 1 µM, first compound 0.0949 µM
[23] = second compound 1 µM, first compound 0.3 µM
[24] = second compound 3.16 µM, first compound 0.000949 µM
[25] = second compound 3.16 µM, first compound 0.003 µM
[26] = second compound 3.16 µM, first compound 0.00949 µM
[27] = second compound 3.16 µM, first compound 0.03 µM
[28] = second compound 3.16 µM, first compound 0.0949 µM
[29] = second compound 3.16 µM, first compound 0.3 µM
[30] = second compound 10 µM, first compound 0.000949 µM
[31] = second compound 10 µM, first compound 0.003 µM
[32] = second compound 10 µM, first compound 0.00949 µM
[33] = second compound 10 µM, first compound 0.03 µM
[34] = second compound 10 µM, first compound 0.0949 µM
[35] = second compound 10 µM, first compound 0.3 µM

**Q.** `CC[C@@]1(O)C(=O)OCc2c1cc1n(c2=O)Cc2cc3c(CN(C)C)c(O)ccc3nc2-1` + NC1CCC(NC2CC2c2ccccc2)CC1 was tested. Which IC50 [1] did it give?
**A.** 337 pM

**Q.** What about the IC50 [2] of the same compound?
**A.** 355 pM

**Q.** And the IC50 [3]?
**A.** 329 pM

**Q.** What about the IC50 [4] of the same compound?
**A.** < 316 pM

**Q.** And the IC50 [5]?
**A.** < 316 pM

**Q.** And the viability, T/C (second compound 0.1 µM, first compound 0.000316 µM)?
**A.** 52.3%

**Q.** And the viability, T/C (second compound 0.1 µM, first compound 0.001 µM)?
**A.** 11.6%

**Q.** And the viability, T/C (second compound 0.1 µM, first compound 0.00316 µM)?
**A.** 2.63%

**Q.** And the viability, T/C (second compound 0.1 µM, first compound 0.01 µM)?
**A.** 7.01%

**Q.** And the viability, T/C (second compound 0.1 µM, first compound 0.0316 µM)?
**A.** 1.98%

**Q.** What about the viability, T/C (second compound 0.1 µM, first compound 0.1 µM) of the same compound?
**A.** 1.11%

**Q.** And the viability, T/C (second compound 0.316 µM, first compound 0.000316 µM)?
**A.** 54.4%

**Q.** And the viability, T/C (second compound 0.316 µM, first compound 0.001 µM)?
**A.** 11.1%

**Q.** What about the viability, T/C (second compound 0.316 µM, first compound 0.00316 µM) of the same compound?
**A.** 1.88%

**Q.** And the viability, T/C (second compound 0.316 µM, first compound 0.01 µM)?
**A.** 2.29%

**Q.** And the viability, T/C (second compound 0.316 µM, first compound 0.0316 µM)?
**A.** 2.33%

**Q.** And the viability, T/C (second compound 0.316 µM, first compound 0.1 µM)?
**A.** 1.04%

**Q.** What about the viability, T/C (second compound 1 µM, first compound 0.000316 µM) of the same compound?
**A.** 51.4%

**Q.** And the viability, T/C (second compound 1 µM, first compound 0.001 µM)?
**A.** 10.3%

**Q.** What about the viability, T/C (second compound 1 µM, first compound 0.00316 µM) of the same compound?
**A.** 3.14%

**Q.** And the viability, T/C (second compound 1 µM, first compound 0.01 µM)?
**A.** 2.71%

**Q.** And the viability, T/C (second compound 1 µM, first compound 0.0316 µM)?
**A.** 7%

**Q.** And the viability, T/C (second compound 1 µM, first compound 0.1 µM)?
**A.** 1.06%

**Q.** What about the viability, T/C (second compound 3.16 µM, first compound 0.000316 µM) of the same compound?
**A.** 49%

**Q.** And the viability, T/C (second compound 3.16 µM, first compound 0.001 µM)?
**A.** 9.4%

**Q.** And the viability, T/C (second compound 3.16 µM, first compound 0.00316 µM)?
**A.** 2.42%

**Q.** What about the viability, T/C (second compound 3.16 µM, first compound 0.01 µM) of the same compound?
**A.** 1.93%

**Q.** And the viability, T/C (second compound 3.16 µM, first compound 0.0316 µM)?
**A.** 1.88%

**Q.** What about the viability, T/C (second compound 3.16 µM, first compound 0.1 µM) of the same compound?
**A.** 1.01%

**Q.** And the viability, T/C (second compound 10 µM, first compound 0.000316 µM)?
**A.** 28.7%

**Q.** And the viability, T/C (second compound 10 µM, first compound 0.001 µM)?
**A.** 6.59%

**Q.** And the viability, T/C (second compound 10 µM, first compound 0.00316 µM)?
**A.** 1.13%

**Q.** And the viability, T/C (second compound 10 µM, first compound 0.01 µM)?
**A.** 1.34%

**Q.** And the viability, T/C (second compound 10 µM, first compound 0.0316 µM)?
**A.** 0.81%

**Q.** And the viability, T/C (second compound 10 µM, first compound 0.1 µM)?
**A.** 0.51%

**Q.** Which IC50 [1] does the source give for `CCc1c2c(nc3ccc(O)cc13)-c1cc3c(c(=O)n1C2)COC(=O)[C@]3(O)CC` + NC1CC1c1ccc(-c2cccc(O)c2)cc1 here?
**A.** < 949 pM

**Q.** And the IC50 [2]?
**A.** < 949 pM

**Q.** What about the IC50 [3] of the same compound?
**A.** < 949 pM

**Q.** And the IC50 [4]?
**A.** < 949 pM

**Q.** What about the IC50 [5] of the same compound?
**A.** < 949 pM

**Q.** What about the viability, T/C [6] of the same compound?
**A.** 3.24%

**Q.** And the viability, T/C [7]?
**A.** 1.7%

**Q.** And the viability, T/C [8]?
**A.** 2.13%

**Q.** What about the viability, T/C [9] of the same compound?
**A.** 0.66%

**Q.** What about the viability, T/C [10] of the same compound?
**A.** 0.05%

**Q.** What about the viability, T/C [11] of the same compound?
**A.** 0.14%

**Q.** What about the viability, T/C [12] of the same compound?
**A.** 3.2%

**Q.** What about the viability, T/C [13] of the same compound?
**A.** 1.12%

**Q.** And the viability, T/C [14]?
**A.** 1.18%

**Q.** What about the viability, T/C [15] of the same compound?
**A.** 1.44%

**Q.** And the viability, T/C [16]?
**A.** 0.05%

**Q.** What about the viability, T/C [17] of the same compound?
**A.** 0.15%

**Q.** And the viability, T/C [18]?
**A.** 3.18%

**Q.** What about the viability, T/C [19] of the same compound?
**A.** 1.68%

**Q.** What about the viability, T/C [20] of the same compound?
**A.** 1.11%

**Q.** And the viability, T/C [21]?
**A.** 0.97%

**Q.** And the viability, T/C [22]?
**A.** 0.04%

**Q.** And the viability, T/C [23]?
**A.** 0.16%

**Q.** And the viability, T/C [24]?
**A.** 2.71%

**Q.** What about the viability, T/C [25] of the same compound?
**A.** 1.57%

**Q.** And the viability, T/C [26]?
**A.** 1.28%

**Q.** What about the viability, T/C [27] of the same compound?
**A.** 0.83%

**Q.** What about the viability, T/C [28] of the same compound?
**A.** 0.05%

**Q.** What about the viability, T/C [29] of the same compound?
**A.** 0.2%

**Q.** And the viability, T/C [30]?
**A.** 2.86%

**Q.** What about the viability, T/C [31] of the same compound?
**A.** 1.99%

**Q.** What about the viability, T/C [32] of the same compound?
**A.** 1.75%

**Q.** What about the viability, T/C [33] of the same compound?
**A.** 1.25%

**Q.** What about the viability, T/C [34] of the same compound?
**A.** 0.17%

**Q.** And the viability, T/C [35]?
**A.** 0.2%

**Q.** For `NS(=O)(=O)OCC1CC(n2ccc3c(NC4CCc5ccccc54)ncnc32)CC1O` (configuration not stated), which viability, T/C (compound 0.00949 µM) is on record?
**A.** 27% and 23.2%

**Q.** What about the viability, T/C (compound 0.03 µM) of the same compound?
**A.** 11.8% and 10.5%

**Q.** What about the viability, T/C (compound 0.0949 µM) of the same compound?
**A.** 2.66% and 3.81%

**Q.** And the viability, T/C (compound 0.3 µM)?
**A.** 6.35% and 1.26%

**Q.** What about the viability, T/C (compound 0.949 µM) of the same compound?
**A.** 0.58% and 0.97%

**Q.** What about the viability, T/C (compound 3 µM) of the same compound?
**A.** 0.31% and 0.53%

**Q.** And the IC50 (curve of compound)?
**A.** < 9490 pM

**Q.** Which results are given for `Nc1ncn(C2CC(O)C(CO)S2)c(=O)n1` (configuration not stated) + NC1CCC(NC2CC2c2ccccc2)CC1?
**A.** IC50 [1]: < 949 pM; IC50 [2]: 1190 pM; IC50 [3]: 1010 pM; IC50 [4]: < 949 pM; IC50 [5]: < 949 pM; viability, T/C [6]: 47.8%; viability, T/C [7]: 27.1%; viability, T/C [8]: 8.74%; viability, T/C [9]: 3.26%; viability, T/C [10]: 1.8%; viability, T/C [11]: 1.91%; viability, T/C [12]: 55.8%; viability, T/C [13]: 26.6%; viability, T/C [14]: 12.1%; viability, T/C [15]: 3.64%; viability, T/C [16]: 2.15%; viability, T/C [17]: 1.98%; viability, T/C [18]: 51.4%; viability, T/C [19]: 26.6%; viability, T/C [20]: 8.75%; viability, T/C [21]: 3.07%; viability, T/C [22]: 2.09%; viability, T/C [23]: 1.41%; viability, T/C [24]: 47.7%; viability, T/C [25]: 23.7%; viability, T/C [26]: 7.85%; viability, T/C [27]: 2.42%; viability, T/C [28]: 1.84%; viability, T/C [29]: 1.65%; viability, T/C [30]: 25.3%; viability, T/C [31]: 9.03%; viability, T/C [32]: 3.09%; viability, T/C [33]: 1.41%; viability, T/C [34]: 0.7%; viability, T/C [35]: 0.58%
